Data published in US12011506B2, “Combination and uses and treatments thereof” (priority 2017, dated 2024).
Each block holds one molecule with its values, some of them ahead of it.

Legend:
[1] = Dolutegravir oral pharmacokinetics (absorption, steady state, population pharmacokinetic analyses); assay type: in vivo, human
CYP3A4 = CYP3A4 (Homo sapiens, UniProt P08684); conditions: cited from earlier work
[2] = Excretion after a single oral dose of [14C] dolutegravir; assay type: in vivo, human; conditions: single oral dose of [14C] dolutegravir
[3] = Food effect pharmacokinetics: high-fat or moderate-fat meal versus fasted (Tables 20, 21)
From the text: Cmax, AUC0-t, AUC0-∞ and AUClast are standard pharmacokinetic parameters that can be estimated manually or by using modelling software well known in the art, such as the Pharsight WinNonlin package using a non-compartmental model. The general basis for calculation of these quantities is well-known (e.g. see Rowland & Tozer (2010) Clinical Pharmacokinetics and Pharmacodynamics: Concepts and Applications ISBN 978-0781750097, or Jambhekar & Breen (2012) Basic Pharmacokinetics ISBN 978-0853699804). Typically the parameters will be assessed as the average (e.g. geometric or arithmetic mean) from within a group of at least 12 (and normally between 24 and 36) healthy human adults. Parameters should be measured in accordance with standards and practices which would be acceptable to a pharmaceutical regulatory agency such as FDA, EMA, MHLW, or WHO. The values may be based on measurements taken at appropriate intervals following the time of tablet ingestion, such as every hour, or at increasingly sparse sampling intervals, such as 1, 3, 5, 7, 9, 11, 13, 15, 20, and 24 hours after ingestion.

[4] = Excretion after single dose oral administration of [14C] rilpivirine; assay type: in vivo, human; conditions: single dose oral [14C] rilpivirine
From the text: In feces, unchanged rilpivirine accounted for on average 25% of the administered dose. […] The pharmacokinetic properties of rilpivirine have been evaluated in adult healthy subjects and in adult antiretroviral treatment-naïve HIV-1-infected subjects. Exposure to rilpivirine was generally lower in HIV-1 infected subjects than in healthy subjects.

cytochrome P450 CYP3A = test: Rilpivirine in vitro oxidative metabolism; assay type: in vitro ADME; conditions: in vitro experiments
[5] = Rilpivirine oral pharmacokinetics; assay type: in vivo, human
[6] = high-fat meal compared with fasted conditions
[7] = moderate-fat meal compared with fasted conditions

CYP3A4, sequence (P08684 whole entry): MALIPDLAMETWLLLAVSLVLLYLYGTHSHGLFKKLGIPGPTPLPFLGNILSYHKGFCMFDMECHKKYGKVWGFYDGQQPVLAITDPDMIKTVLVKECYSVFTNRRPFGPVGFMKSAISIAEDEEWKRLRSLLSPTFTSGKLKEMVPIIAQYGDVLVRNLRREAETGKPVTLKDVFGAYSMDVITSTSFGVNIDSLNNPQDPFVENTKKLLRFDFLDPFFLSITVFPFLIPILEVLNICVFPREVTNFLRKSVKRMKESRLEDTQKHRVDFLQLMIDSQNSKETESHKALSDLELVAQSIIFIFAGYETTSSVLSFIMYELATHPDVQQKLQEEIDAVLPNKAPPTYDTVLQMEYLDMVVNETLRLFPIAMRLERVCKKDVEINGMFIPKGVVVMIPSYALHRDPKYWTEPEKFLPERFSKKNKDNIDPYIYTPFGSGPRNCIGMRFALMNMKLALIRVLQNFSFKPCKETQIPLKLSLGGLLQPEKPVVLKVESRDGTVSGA

SMILES: C[C@@H]1CCO[C@H]2Cn3cc(C(=O)NCc4ccc(F)cc4F)c(=O)c(O)c3C(=O)N12 [Dolutegravir, (4R,12aS)—N-[(2,4-difluorophenyl)methyl]-7-hydroxy-4-methyl-6,8-dioxo-3,4,12,12a-tetrahydro-2H-pyrido[5,6]pyrazino[2,6-b][1,3]oxazine-9-carboxamide]
half-life ([1]; human, plasma, oral, population pharmacokinetic analyses, read-out: Terminal half-life (converted)): ~14 h | Time to pharmacokinetic steady state ([1]; once-daily dosing): ≤ 5 days | Apparent clearance (CL/F) ([1]; population pharmacokinetic analyses): 1.0 L per hour | Extent as substrate of CYP3A4 (CYP3A4): about 15% | Renal elimination of unchanged drug [2]: less than 1 % of the dose | Total oral dose excreted in the urine [2]: Thirty-one | Total oral dose excreted unchanged in the feces [2]: 53% | Increase of AUC(0-∞) ([3]; human, in vivo): approximately 87% | Increase of Cmax ([3]; moderate- and high-fat meals each, compared with fasted conditions): approximately 75%

Unchanged rilpivirine in urine [4]: < 1 % of dose | Radioactivity retrieved in feces ([4]; on average): 85% | Radioactivity retrieved in urine ([4]; on average): 6.1% | Unchanged rilpivirine in feces ([4]; on average): 25 % of the administered dose | Metabolic pathway (cytochrome P450 CYP3A): primarily metabolized by CYP3A | Increase of AUC(0-∞) [3, 6]: 72% | Increase of Cmax [3, 6]: 117% | Increase of AUC(0-∞) [3, 7]: 57% | Increase of Cmax [3, 7]: 89% | half-life ([5]; human, in vivo, oral, read-out: Terminal elimination half-life (converted)): ~50 h | Exposures lower than when taken with a meal ([5]; taken with only a protein-rich nutritional drink): 50%
SMILES: Cc1cc(/C=C/C#N)cc(C)c1Nc1ccnc(Nc2ccc(C#N)cc2)n1 [Rilpivirine, 4-[[4-[[4-[(E)-2-cyanoethenyl]-2,6-dimethylphenyl]amino]-2-pyrimidinyl]amino]benzonitrile]
Metabolic pathway (cytochrome P450 CYP3A; listed as rilpivirine): primarily undergoes oxidative metabolism mediated by the cytochrome P450 CYP3A system
